We go through 15 compounds from PubChem BioAssay AID2020 (NMMLSC, 2009).

The source made the active and inactive calls.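 How the source made its calls: active means EC50 at or below 30 µM together with a response span of at least a set limit; inactive means the rest.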 Bounds are passed on as bounds.

In the assay the target is Cell division control protein 42 homolog (Homo sapiens) (UniProt P60953). Nature of the assay: fluorescent GTP binding blockers of active-mutant Cdc42 – biochemical, pyrazoline analogs, multiplex bead flow cytometry, Ki, SAR follow-up (AID 2020). The following applies: bead-based flow cytometry, Bodipy-FL-GTP binding; for Ki: measured here: Ki calculated from EC50.
Sequence of Cell division control protein 42 homolog (Homo sapiens) (P60953 whole entry, looked up, change not shown): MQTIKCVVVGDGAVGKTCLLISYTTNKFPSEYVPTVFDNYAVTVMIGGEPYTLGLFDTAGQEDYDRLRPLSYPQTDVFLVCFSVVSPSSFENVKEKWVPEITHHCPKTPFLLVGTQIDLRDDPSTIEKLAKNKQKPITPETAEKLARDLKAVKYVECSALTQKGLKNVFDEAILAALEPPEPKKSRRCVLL

In the case of `COc1ccc(C2CC(c3ccc(Br)cc3)=NN2c2ccc(S(N)(=O)=O)cc2)cc1` (centres undefined), the EC50 entry is “inactive” and the inhibition constant Ki is 440 nM.
`O=[N+]([O-])c1cccc(C2CC(c3ccccc3)=NN2c2ccccc2)c1` (centres undefined): the EC50 is > 30000 nM (inactive).
As for `COc1ccc(-c2cc(-c3ccccc3)nn2-c2ccc(S(N)(=O)=O)cc2)cc1`, the EC50 entry was “inactive” and the Ki was 380 nM.
As to `COc1ccc(C2CC(c3ccncc3)=NN2c2ccc(S(N)(=O)=O)cc2)cc1` (centres undefined), the EC50 is > 30000 nM (inactive).
`COc1ccc(C2CC(c3cccc(Cl)c3)=NN2c2ccc(S(N)(=O)=O)cc2)cc1` (centres undefined): the EC50 was 2080 nM and the Ki was 320 nM.
For the compound `NS(=O)(=O)c1ccc(N2N=C(c3ccccc3)CC2c2ccccc2Br)cc1` (centres undefined), the EC50 is > 30000 nM (inactive).
For the compound `COc1ccc(C2CC(c3ccc(C)cc3)=NN2c2ccc(S(N)(=O)=O)cc2)cc1` (centres undefined), the EC50 result is “inactive” and the Ki is 370 nM.
Regarding `Fc1ccccc1C1CC(c2ccc(Br)cc2)=NN1c1ccc(Br)cc1` (centres undefined), the EC50 is > 30000 nM (inactive).
On to `COc1ccc(C2=NN(c3ccccc3)C(c3ccccc3C(F)(F)F)C2)cc1` (centres undefined), for which the EC50 result is “inactive” and the inhibition constant (Ki) is 3500 nM.
Take `Cc1cccc(C2CC(c3ccccc3)=NN2c2ccc(S(N)(=O)=O)cc2)c1` (centres undefined): the EC50 is 5300 nM and the inhibitory constant (Ki) was 820 nM.
`O=S(=O)(O)c1ccc(N2N=C(c3ccccc3)CC2c2ccccc2)cc1` (centres undefined): the EC50 was > 30000 nM (inactive).
As for `COc1ccc(C2CC(c3ccc(F)cc3)=NN2c2cccc(F)c2)cc1OC` (centres undefined), the EC50 result was “inactive” and the Ki is 4880 nM.
Take `COc1ccccc1C1CC(c2ccccc2)=NN1c1ccccc1` (centres undefined): the EC50 result is “inactive” and the inhibition constant Ki was 90 nM.
Regarding `O=S(=O)(c1ccc(N2N=C(c3ccccc3)CC2c2ccccc2)cc1)C(F)F` (centres undefined), the EC50 is > 30000 nM (inactive).
Turning to `NS(=O)(=O)c1ccc(N2N=C(c3ccccc3)CC2c2ccccc2Cl)cc1` (centres undefined), the half-maximal effective concentration (EC50) was 7400 nM and the Ki was 1140 nM.
